According to ChEMBL document CHEMBL1201862, “PubChem BioAssay data set” (2004):
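Results reflect a 48-hour exposure of cells in 96-well plates to compound at five concentrations. Here, GI50 denotes the concentration required for 50% inhibition of growth.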 Activity calls are given as the source filed them. Rule as the data show it: active = GI50 up to about 1.1 µM and inactive = higher.

How the values were obtained:
Test in all cases: inhibition of tumour cell growth, NCI panel, 48 h
[1] = test system: HCT-15
[2] = test system: MDA-MB-231
[3] = test system: SK-MEL-28
[4] = test system: EKVX
[5] = test system: OVCAR-5
[6] = test system: UACC-257
[7] = test system: PC-3
[8] = test system: UO-31
[9] = test system: IGROV-1
[10] = test system: SF-539
[11] = test system: NCI-H522
[12] = test system: KM12
[13] = test system: DU-145
[14] = test system: TK-10
[15] = test system: OVCAR-8
[16] = test system: NCI/ADR-RES
[17] = test system: NCI-H460
[18] = test system: HCC 2998
[19] = test system: SK-OV-3
[20] = test system: NCI-H226
[21] = test system: NCI-H23
[22] = test system: SK-MEL-2
[23] = test system: SW-620
[24] = test system: M14
[25] = test system: ACHN
[26] = test system: OVCAR-3
[27] = test system: HOP-62
[28] = test system: OVCAR-4
[29] = test system: BT-549
[30] = test system: Malme-3M
[31] = test system: SF-268
[32] = test system: UACC-62
[33] = test system: RXF 393
[34] = test system: MCF7
[35] = test system: Hs-578T
[36] = test system: CAKI-1
[37] = test system: MOLT-4
[38] = test system: HOP-92
[39] = test system: A549
[40] = test system: RPMI-8226
[41] = test system: T47D
[42] = test system: SF-295
[43] = test system: U-251
[44] = test system: SN12C
[45] = test system: MDA-MB-435
[46] = test system: HL-60
[47] = test system: COLO 205
[48] = test system: SNB-19
[49] = test system: SK-MEL-5
[50] = test system: HT-29
[51] = test system: SR
[52] = test system: LOX IMVI
[53] = test system: K562
[54] = test system: HCT-116
[55] = test system: 786-0
[56] = test system: SNB-75
[57] = test system: A498
[58] = test system: CCRF-CEM

CC(C)(C)c1ccc2c(c1)CNCCNCCNCc1cc(C(C)(C)C)ccc1OCC1(CO2)COc2ccc(C(C)(C)C)cc2CNCCNCCNCc2cc(C(C)(C)C)ccc2OC1
GI50 [1]: 1.51 µM | GI50 [2]: 1.41 µM (inactive) | GI50 [3]: 10 µM (inactive) | GI50 [4]: 0.611 µM (active) | GI50 [5]: 1.72 µM (inactive) | GI50 [6]: 1.69 µM (inactive) | GI50 [7]: 0.382 µM (active) | GI50 [8]: 1.72 µM (inactive) | GI50 [9]: 0.418 µM (active) | GI50 [10]: 0.375 µM (active) | GI50 [11]: 0.186 µM (active) | GI50 [12]: 0.243 µM (active) | GI50 [13]: 1.49 µM (inactive) | GI50 [14]: 1.55 µM (inactive) | GI50 [15]: 1.76 µM (inactive) | GI50 [16]: 2.17 µM (inactive) | GI50 [17]: 0.24 µM (active) | GI50 [18]: 0.339 µM (active) | GI50 [19]: 1.53 µM (inactive) | GI50 [20]: 0.718 µM (active) | GI50 [21]: 1.52 µM (inactive) | GI50 [22]: 0.914 µM (active) | GI50 [23]: 0.303 µM (active) | GI50 [24]: 0.526 µM (active) | GI50 [25]: 1.51 µM (inactive) | GI50 [26]: 1.33 µM (inactive) | GI50 [27]: 1.87 µM (inactive) | GI50 [28]: 1.58 µM (inactive) | GI50 [29]: 1.5 µM (inactive) | GI50 [30]: 1.94 µM (inactive) | GI50 [31]: 1.37 µM (inactive) | GI50 [32]: 1.68 µM (inactive) | GI50 [33]: 2.05 µM (inactive) | GI50 [34]: 0.183 µM (active) | GI50 [35]: 1.44 µM (inactive) | GI50 [36]: 1.72 µM (inactive)

CSC1=C(C(=O)N(COCC[Si](C)(C)C)c2ccccc2Br)CCC(C(C)(C)C)C1 (stereo not given)
GI50 [1]: 11.7 µM | GI50 [2]: 10.3 µM (inactive) | GI50 [3]: 25.8 µM (inactive) | GI50 [4]: 13.8 µM (inactive) | GI50 [5]: 14.4 µM (inactive) | GI50 [6]: 9.77 µM (inactive) | GI50 [37]: 5.87 µM (inactive) | GI50 [7]: 12.4 µM (inactive) | GI50 [38]: 12.9 µM (inactive) | GI50 [8]: 12.6 µM (inactive) | GI50 [9]: 23.2 µM (inactive) | GI50 [39]: 17 µM (inactive) | GI50 [40]: 10.6 µM (inactive) | GI50 [11]: 7.78 µM (inactive) | GI50 [12]: 14.2 µM (inactive) | GI50 [13]: 22.4 µM (inactive) | GI50 [41]: 6.81 µM (inactive) | GI50 [14]: 23.5 µM (inactive) | GI50 [15]: 17.8 µM (inactive) | GI50 [16]: 13.7 µM (inactive) | GI50 [42]: 9.64 µM (inactive) | GI50 [43]: 11.6 µM (inactive) | GI50 [17]: 13.6 µM (inactive) | GI50 [44]: 14.1 µM (inactive) | GI50 [18]: 13.4 µM (inactive) | GI50 [19]: 31.9 µM (inactive) | GI50 [20]: 13.9 µM (inactive) | GI50 [21]: 13.8 µM (inactive) | GI50 [45]: 17.9 µM (inactive) | GI50 [46]: 3.24 µM (inactive) | GI50 [47]: 12.4 µM (inactive) | GI50 [48]: 18.5 µM (inactive) | GI50 [49]: 12.8 µM (inactive) | GI50 [50]: 15 µM (inactive) | GI50 [22]: 14 µM (inactive) | GI50 [23]: 13.8 µM (inactive) | GI50 [24]: 13.1 µM (inactive) | GI50 [25]: 16.4 µM (inactive) | GI50 [51]: 3.42 µM (inactive) | GI50 [52]: 15.7 µM (inactive) | GI50 [53]: 8.28 µM (inactive) | GI50 [26]: 10.7 µM (inactive) | GI50 [27]: 18.1 µM (inactive) | GI50 [28]: 10.5 µM (inactive) | GI50 [29]: 28.1 µM (inactive) | GI50 [30]: 16.6 µM (inactive) | GI50 [54]: 5.32 µM (inactive) | GI50 [32]: 10.9 µM (inactive) | GI50 [33]: 9.79 µM (inactive) | GI50 [34]: 10.6 µM (inactive) | GI50 [55]: 13.3 µM (inactive) | GI50 [56]: 20.6 µM (inactive) | GI50 [57]: 28.1 µM (inactive) | GI50 [58]: 22.7 µM (inactive) | GI50 [36]: 1.83 µM (inactive)

COC(=O)c1ccc(/C=C(\c2ccc([N+](=O)[O-])o2)S(=O)(=O)c2ccc(NC(C)=O)cc2)o1
GI50 [1]: 2.45 µM | GI50 [2]: 2.01 µM (inactive) | GI50 [3]: 4.69 µM (inactive) | GI50 [4]: 11.9 µM (inactive) | GI50 [5]: 3.8 µM (inactive) | GI50 [6]: 1.98 µM (inactive) | GI50 [37]: 2.83 µM (inactive) | GI50 [7]: 14.8 µM (inactive) | GI50 [38]: 10.3 µM (inactive) | GI50 [8]: 4.49 µM (inactive) | GI50 [9]: 12.9 µM (inactive) | GI50 [39]: 16.7 µM (inactive) | GI50 [40]: 1.22 µM (inactive) | GI50 [10]: 4.2 µM (inactive) | GI50 [11]: 2.03 µM (inactive) | GI50 [12]: 13.4 µM (inactive) | GI50 [13]: 10.1 µM (inactive) | GI50 [41]: 18.4 µM (inactive) | GI50 [14]: 4.97 µM (inactive) | GI50 [15]: 3.42 µM (inactive) | GI50 [16]: 14.2 µM (inactive) | GI50 [42]: 17.5 µM (inactive) | GI50 [43]: 14.1 µM (inactive) | GI50 [17]: 18.5 µM (inactive) | GI50 [44]: 0.0579 µM (active) | GI50 [19]: 19 µM (inactive) | GI50 [20]: 3.04 µM (inactive) | GI50 [21]: 13.9 µM (inactive) | GI50 [45]: 3.82 µM (inactive) | GI50 [46]: 3.03 µM (inactive) | GI50 [47]: 2.9 µM (inactive) | GI50 [48]: 16.9 µM (inactive) | GI50 [49]: 3.93 µM (inactive) | GI50 [50]: 2.59 µM (inactive) | GI50 [22]: 15.9 µM (inactive) | GI50 [23]: 3.63 µM (inactive) | GI50 [24]: 4.14 µM (inactive) | GI50 [25]: 3.09 µM (inactive) | GI50 [51]: 1.77 µM (inactive) | GI50 [53]: 4.15 µM (inactive) | GI50 [26]: 5.9 µM (inactive) | GI50 [27]: 14.4 µM (inactive) | GI50 [28]: 2.22 µM (inactive) | GI50 [29]: 0.565 µM (active) | GI50 [30]: 2.49 µM (inactive) | GI50 [54]: 2.46 µM (inactive) | GI50 [31]: 13.6 µM (inactive) | GI50 [32]: 2 µM (inactive) | GI50 [33]: 3.69 µM (inactive) | GI50 [34]: 5.36 µM (inactive) | GI50 [55]: 3.43 µM (inactive) | GI50 [35]: 2.1 µM (inactive) | GI50 [56]: 19.3 µM (inactive) | GI50 [36]: 15.4 µM (inactive)
